Patent US20110021475A1, “Compositions And Methods for Treatment Of Fibrosis” (priority 2003, published 2011)

Tests used:
[1] = system: bile duct ligated (BDL) rats; test: Bile duct ligated (BDL) rats: serum chemistry, liver histology and liver fibrosis marker mRNA; format: in vivo, rat; settings: for level of Collagen I mRNA in liver / level of alpha SMA mRNA in liver: compared to sham operated rats (p<0.05)
Experimental: A study of the effects of an FXR agonist (GW4064) on the livers of bile duct ligated (BDL) rats was carried out. This study was initially devised to examine the effects of FXR agonist on non-fibrotic liver damage due to cholestosis. The present researchers additionally went on to examine samples from these experiments for markers of liver fibrosis.
Male Sprague-Dawley rats (approximately 300 grams) were obtained from Charles River Laboratories Inc (Raleigh, N.C.) and were maintained on a 12 hour light/12 hour dark light cycle. Animals were anesthetized by the administration of 2-3% isoflurane. Laparotomy was performed under sterile technique and the liver and duodenum gently displaced to reveal the common bile duct. The bile duct was separated from the surrounding tissue and two ligatures of 4-0 Ethilon were placed around it. The bile duct was clamped between the two ligatures with an aneurysm clamp and the ligatures drawn tight. An additional ligature was placed proximal to the first (near the liver). The clamp was removed and the bile duct severed between the ligatures. The muscle wall was closed with 4-0 Vicryl and the skin closed with staples. Sham controls underwent laparotomy, but the bile ducts were not ligated or transected. Animals were allowed food and water ad libitum throughout the study period. Animals were anesthetized with 2-3% isoflurane and sacrificed by cardiac puncture.
Twenty-four hours after surgery, groups of rats (n=6-8) received intraperitoneal injections once daily for four days, of either (a) 5 ml/kg corn oil (vehicle); (b) 30 mg/kg GW4064 in corn oil; or (c) 15 mg/kg TUDCA in corn oil (taurine-conjugated ursodeoxycholic acid, used clinically to treat cholestosis). Sham operated animals received intraperitoneal injections of 5 ml/kg corn oil vehicle 24 hours after sham operation. Four hours after the last dose on day four, blood and livers were collected.
Serum activities of alanine aminotransferase (ALT), asparate aminotransferase (AST), sorbital dehydrogenase (SDH), y-glutamyl transferase (GGT), lactate dehydrogenase (LDH), alkaline phosphatase (ALP) and total bilirubin were determined. Serum bile acids (BILEA) were determined using a commercially available assay (Sigma Chemical Co., St Louis, Mo.).
In humans, liver fibrosis secondary to cholestatic disease is known to occur clinically. Experimentally, bile duct ligation in rats as a model of cholestosis is also known to cause liver fibrosis. In view of this, the present researchers additionally examined the BDL rat liver tissue for markers of liver fibrosis. Levels of Smooth Muscle Actin (SMA) mRNA, Collagen I mRNA, and TGFbeta1 mRNA were measured; results are graphed in FIG. 1a-1c where white bars=sham operated rats; black bars=vehicle treated BDL rats; striped bars=GW4064 treated BDL rats; and dotted bars=TUDCA treated BDL rats.

[2] = system: rats treated with carbon tetrachloride (CCl4); test: Acute liver fibrosis in vivo model (single dose CCl4); parameters: species or system rat
Experimental: Male CRL:CD(SD)IGS® rats (Charles River Laboratories) weighing 250-280 g were randomized into three groups of 5-6 rats per group. On day 1, rats in Group 1 (Control) were given a single intraperitoneal (ip) injection of corn oil (5 ml/kg). Rats in Groups 2 and 3 were given a single ip injection of 30% carbon tetrachloride (CCl4) in corn oil (5 ml/kg). Beginning four hours after the initial ip injections and continuing for four days, rats in Group 1 (Control) and Group 2 (CCl4) were given vehicle (20% Encapsin; Cerestar Inc., IN) by oral gavage twice daily. Beginning four hours after the initial ip injections and continuing for four days, rats in Group 3 (CCl4+GW4064) were given 30 mg/kg GW4064 in vehicle by oral gavage, twice daily for four days.
Four hours after the final oral dose on day four, rats were sacrificed under deep anesthesia and blood and livers were collected. A portion of liver from each rat was fixed in 10% phosphate-buffered formalin (pH 7.4). The remaining livers were snap frozen in liquid nitrogen and stored at −80° C. prior to RNA extraction.
Histopathology: The tissues were processed by standard histological techniques. Liver sections were stained with hematoxylin and eosin (H&E) using standard protocols and examined by light microscopy for necrosis and other structural changes. Immunohistochemistry was used to visualize α-smooth muscle actin (DAKO Corporation, CA) according to the manufacturer's instructions. Sirius Red (Sigma, St Louis, Mo.) was used to visualize collagen according to the manufacturer's instructions.
(§1) Reverse Transcription Quantitative Polymerase Chain Reaction (RTQ-PCR). Total RNA was extracted from rat liver using TRIzol reagent (Invitrogen) according to the manufacturer's directions. The RNA was treated with DNase I (Ambion, Austin, Tex.) at 37° C. for 30 min, followed by inactivation at 75° C. for 5 min. RNA was then quantitated using the RiboGreen RNA quantitation kit (Molecular Probes, Eugene, Oreg.). RNA expression was measured by RTQ-PCR using an ABI PRISM 7700 or 7900 Sequence Detection System (PE Applied Biosystems, Foster City, Calif.).
(§2) Statistical Analysis: All data were analyzed by one-way analysis of variance (ANOVA) followed by Duncan's multiple range test. The 0.05 level of probability was used as the criteria of significance.

human hepatocytes = settings: compared to control cells; cited from earlier work
[3] = system: rats treated with carbon tetrachloride (CCl4); test: Chronic liver fibrosis in vivo model (twice weekly CCl4 up to eight weeks); parameters: species or system rat
Experimental: Male CRL:CD(SD)IGS® rats (Charles River Laboratories) weighing 250-350 were randomized into 3 groups. All rats received twice weekly intraperitoneal (ip) injections of 20% carbon tetrachloride (CCl4) in corn oil (5 ml/kg) for the duration of the study. Two weeks after the initiation of the CCl4 injections, rats in Group 1 (CCL4+Vehicle) began receiving vehicle (6% Encapsin; Cerestar Inc., IN) twice daily, rats in Group 2 (CCL4+GW4064) began receiving 30 mg/kg GW4064 in vehicle twice daily, and rats in Group 3 (CCL4+Silymarin) began receiving silymarin in vehicle twice daily. (Silymarin reduces TGFb1 and collagen deposition in fibrotic rat liver (Jia et al., J Hepatol 2001 September; 35(3):392-8).
Multiple rats from each group were sacrificed after each of four, six and eight weeks on study. Rats were also sacrificed following the two weeks of CCL4 exposure, prior to initiation of drug treatment, as well as five untreated Naive rats. An additional five untreated Naïve rats were also sacrificed at the eight week timepoint. Plasma, serum, kidneys and livers were collected for analysis. Histopathological, mRNA and serum markers of liver damage and liver fibrosis were examined.
Histopathology: The tissues were processed by standard histological techniques. Liver sections were stained with hematoxylin and eosin (H&E) using standard protocols and examined by light microscopy for necrosis and other structural changes. Immunohistochemistry was used to visualize α-smooth muscle actin (Sigma, St Louis, Mo.) according to the manufacturer's instructions. Sirius Red (Sigma, St Louis, Mo.) was used to visualize collagen according to the manufacturer's instructions. Liver sections were stained with Masson's trichrome (Sigma, St Louis, Mo.) according to the manufacturer's instructions.
as §1, with “from sections of” for “from”, “75°C.” for “75° C.”
Serum Analysis: Serum TIMP1 (R&D Systems, Minneapolis, Minn.) levels were measured according to the manufacturer's directions.
as §2

[4] = system: rat hepatic stellate cells; test: In vitro stellate cell activation (RTQ-PCR of SMA, collagen, fibronectin mRNA); format: cell-based
Experimental: Rat hepatic stellate cells were isolated from male CRL:CD(SD)IGS® rats (Charles River Laboratories) as described previously. Cells were plated into six well plates at a density of 1×10^6 cells/well in DMEM-F12 media with 20% FCS. Twenty-four hours after plating, the media was replaced with media containing 0.1% DMSO (vehicle control) or 10 uM GW4064 with 0.1% DMSO. Following 2, 4, 6 or 8 days of treatment, total RNA was extracted from the cells using TRIzol reagent (Invitrogen) according to the manufacturer's directions. The RNA was treated with DNase I (Ambion, Austin, Tex.) at 37° C. for 30 min, followed by inactivation at 75° C. for 5 min. RNA was then quantitated using the RiboGreen RNA quantitation kit (Molecular Probes, Eugene, Oreg.). RNA expression was measured by RTQ-PCR using an ABI PRISM 7700 or 7900 Sequence Detection System (PE Applied Biosystems, Foster City, Calif.). For analysis, gene expression was normalized to 18S RNA. Follow-up studies were conducted using the same study design, except for a lower dose of GW4064 (3 uM). In the vehicle control group, SMA, collagen and fibronectin peaked at six days of culture; collagen and fibronectin expression began to decline following eight days in culture (FIGS. 4A-4C, white bars). […] (FIGS. 4a-4c, shaded bars; asterisk indicates p<0.05 compared to the vehicle treatment at the indicated timepoint).

[5] = 30 mg/kg GW4064 or 15 mg/kg TUDCA ip once daily for four days, compared to vehicle-treated BDL rats
[6] = 30 mg/kg oral gavage twice daily for four days after single CCl4, compared to CCl4+V animals
[7] = 30 mg/kg oral twice daily four days, compared to control
[8] = 30 mg/kg oral twice daily four days, compared to group 2 (CCl4+vehicle), p<0.05
[9] = day four, compared to vehicle-treated BDL rats
[10] = ip once daily for four days, compared to vehicle treated BDL rats
[11] = twice daily from week 2, compared to CCl4+Vehicle rats
[12] = twice daily from week 2, compared to CCl4+Vehicle rats, 8 week timepoint
[13] = 3 uM, eight days, compared to vehicle
[14] = 3 uM, six days, compared to vehicle
[15] = 10 uM, eighth day, compared to control group, normalized to 18S
[16] = 10 uM, six days, compared to vehicle control group

In the case of `C[C@H](CCC(=O)NCCS(=O)(=O)O)[C@H]1CC[C@H]2[C@@H]3[C@@H](O)C[C@@H]4C[C@H](O)CC[C@]4(C)[C@H]3CC[C@]12C` [TUDCA, taurine-conjugated ursodeoxycholic acid, reference compound], the “serum level of LDH” value [1, 5] is reported as “significant decrease”, the “level of Collagen I mRNA in liver” value ([1]; day four) is reported as “significantly different” and the “level of alpha SMA mRNA in liver” value ([1]; day four) is reported as “significantly different”. For the same molecule, the “liver sections, histology overall (necrosis, bile duct proliferation)” value ([1]; day four, compared to vehicle treated BDL rats) was “did not appear to differ substantially from vehicle treated BDL rats”.
With `CC(C)c1onc(-c2c(Cl)cccc2Cl)c1COc1ccc(/C=C/c2cccc(C(=O)O)c2)c(Cl)c1` [GW4064] the “liver SMA (immunohistochemistry)” value [2, 6] was “reduced SMA”, the “liver collagen deposition (Sirius Red)” value [2, 6] was “reduced collagen deposition” and the “liver Collagen I mRNA” value [2, 7] was “not statistically different from control”. The “liver SMA mRNA” value [2, 7] was “not statistically different from control”, the “liver TGFb1 mRNA” value [2, 7] was “not statistically different from control” and the “liver Collagen I mRNA” value [2, 8] was “significantly decreased”. The “liver SMA mRNA” value [2, 8] was “significantly decreased”, the “expression of Fibroblast Growth Factor 19 (FGF19)” value (human hepatocytes) was “increased” and the “serum level of ALT” value [1, 5] was “reductions”. The “serum level of LDH” value [1, 5] was “reductions”, the “level of TGFb1 mRNA in liver” value ([1]; day four, compared to BDL rats receiving vehicle or TUDCA) was “significantly reduced” and the “level of Collagen I mRNA in liver” value ([1]; day four) was “significantly different”. The “level of alpha SMA mRNA in liver” value ([1]; day four) was “significantly different”, the “number of mitotic nuclei (liver histology)” value ([1]; day four, compared to vehicle treatment) was “reduced” and the “bile duct proliferation (liver histology)” value [1, 9] was “reduced bile duct proliferation”. The “fatty cell degeneration (liver histology)” value [1, 9] was “decreased fatty cell degeneration”, the “liver necrotic lesions (histology)” value [1, 9] was “qualitatively fewer and smaller necrotic lesions” and the serum bile acids [1, 10] was “did not significantly reduce”. The “serum level of ALP” value [1, 10] was “did not significantly reduce”, the “serum level of GGT” value [1, 10] was “did not significantly reduce” and the “serum level of SDH” value [1, 10] was “did not significantly reduce”. The serum total bilirubin [1, 10] was “did not significantly reduce”, the “serum level of AST” value ([1]; ip once daily for four days, compared to vehicle-treated BDL rats) was “reductions” and the “liver collagen deposition (Sirius Red)” value ([3]; twice daily from week 2 (GW4064 30 mg/kg), six and eight week timepoints, compared to CCl4+V animals) was “reduced collagen deposition”. For the same molecule, the “liver TGFb1 mRNA” value [3, 11] was “unchanged”, the “reduction in liver SMA mRNA” value [3, 11] was “not statistically significant” and the “liver Collagen I mRNA” value [3, 12] was “significant reductions”. For the same molecule, the “liver TIMP1 mRNA” value [3, 12] was “significant reductions”, the “serum TIMP1” value ([3]; twice daily from week 2, compared to CCl4+Vehicle treated rats at 8 weeks, p<0.05) was “significant reductions” and the “collagen mRNA” value [4, 13] was “not significantly different from vehicle”. The “decrease of SMA mRNA” value [4, 13] was 40%, the “fibronectin mRNA” value [4, 13] was “not significantly different from vehicle” and the “decrease of SMA mRNA” value [4, 14] was 55%. For the same molecule, the “decrease of collagen mRNA” value [4, 14] was 31%, the “decrease of fibronectin mRNA” value [4, 14] was 28% and the “decrease of SMA mRNA” value [4, 15] was 84%. The “decrease of collagen mRNA” value [4, 15] was 51%, the “decrease of fibronectin mRNA” value [4, 15] was 79% and the “SMA mRNA” value [4, 16] was “decreased”. For the same molecule, the “fibronectin mRNA” value [4, 16] was “decreased”.
